Results as given in US5229265A, “Process for analyzing clastogenic agents” (Litron Laboratories, priority 1990, dated 1993).
Several values for one entry are separate records, joined by “and”; a condition that tells them apart may be missing. Identical values can stand only once.

Key:
[1] = tested on: micronucleated cells in blood; assay: Single parameter flow cytometric micronucleus analysis, cyclophosphamide, effect of analysis window size; type: in vivo, mouse
Method: In order to show this single parameter embodiment of this invention, the instrument was aligned with the malaria parasite, P. berghei, data was acquired, and analysis windows were defined relative to the malaria peak. […] A prominent peak, characteristic of cells single parasites, is evident. The primary analysis window was used to bracket the main peak and extends to the third log has mark. […] Blood samples (t=0 and t=96 hr) from a mouse that was dosed with cyclophosphamide (at t=0 and t=48 hrs) were stained with […] and the events were also acquired in the single parameter mode. FIGS. 9A and 9B show the blue fluorescence histograms that were obtained for the t=0 and the t=96 hr samples, respectively. The analysis windows shown in FIG. 9 are those that were initially set up with the malaria infected blood sample shown in FIG. 8. The number of events present in the primary analysis windows are shown. […]
Practioners in the art are presently unaware of the need for internal quality control on the flow cytometer signals during the analysis of each sample. […] As indicated earlier, neither RBC, PCEs, MN-cells nor the nucleated cell populations provide proper signals for evaluating instrument alignment since they are either nor present in sufficient quantities, the populations are too dispersed, or cell staining variations would be introduced. […]

[2] = tested on: micronucleated cells in blood; conditions: literature statement; cited from earlier work
[3] = tested on: micronucleated cells in blood; assay: Effects of bleeding on the sensitivity of the micronucleus assay, MMS; type: in vivo, mouse; conditions: for MNs in 96 hr blood, MMS(D): MMS 100 μg/g body wt at 0 and 48 hrs; for Increase in MNs (D - C): MMS minus saline means
Description: Earlier, it was pointed out that obtaining an initial blood sample (t=0) provides an important background measurement of the number of micronucleii in each mouse. Obtaining an initial blood sample also increases the sensitivity of the assay, due to the stimulation of the stem cells to replenish the lost blood. Clastogen action should be increased if cells are actively turning over, rather than subsisting in a quiscent state. In the absence of bleeding, new PCEs are introduced into the blood cells at a low steady state level and MNs are introduced at a spontaneous background level. […] Practioners in the art are unaware of this increase in sensitivity due to initial bleeding. […] In this experiment, control mice were dosed with 0.9% saline, whereas treated mice received MMS (100 μg/g body wt.) at 0 hr and at 48 hrs. The first set of mice (the L series) were not bleed prior to obtaining a 96 hour blood sample. The MN-cell level resulting from MMS treatment would reflect the probability of clastogen action in the steady state stem cell turnover rate. The second set of mice (the M series) were bleed 166 hrs prior to the initial clastogen dose. In this set, the minus 166 hr bleeding will cause stem cell proliferation and differentiation, but the system should begin to return to steady state once the blood is replenished. The third set (the K series) was bleed at t=0hr where upon dosing was initiated, and a final blood sample was obtained at t=96 hrs.
Since the L series was not initially bleed, the initial blood samples were not used in the analysis of the M or K series for equal comparison with L. Rather, only the 96 hour blood samples were analyzed in each set. The difference, D, between the saline controls and the dosed mice should reflect the level of turnover of the stem cells and the suseptibility of said cells to clastogen action in each case. […] Although the M series had 166 hrs to recover from the initial bleeding before being dosed with MMS, the stem cells still appear to be fairly active, and an intermediate level of micronucleated cells was obtained (i.e. 513 events above background). Finally, the highest activity was obtained with the K-series wherein the mice were bleed and immediately dosed. In this case, the stem cells are turning over at a high rate to replenish the blood at a time when the concentration of MMS is also high. […] The results in Tables 2 and 4 provide additional experimental evidence that bleeding stimulates stem cell proliferation and differentiation. […] This increase in sensitivity could be particularly important in cases where a week clastogen is being investigated.

[4] = K Series: initial bleeding at t = 0
[5] = M Series: initial bleeding at -166 hr

Structure (SMILES) | clastogen stimulated increase in MNs ([1]; cyclophosphamide at t=0 and t=48 hrs, primary or expanded window) | Sum96 (t = 96 hr) ([1]; cyclophosphamide, primary window plus sequentially added secondary windows 2-8) | clastogenic activity (documented) [2] | MNs in 96 hr blood, MMS(D) [3, 4] | Increase in MNs (D - C) [3, 4] | MNs in 96 hr blood, MMS(D) ([3]; L Series: no initial bleeding) | Increase in MNs (D - C) ([3]; L Series: no initial bleeding) | MNs in 96 hr blood, MMS(D) [3, 5] | Increase in MNs (D - C) [3, 5]
O=P1(N(CCCl)CCCl)NCCCO1 (stereo not drawn) [cyclophosphamide] | clastogen stimulated increase in MNs is clearly evident | 1480 MN events and 1563 MN events and 1644 MN events and 1713 MN events and 1778 MN events and 1839 MN events and 1915 MN events | clastogenic activity of cyclophosphamide has been documented |  |  |  |  |  | 
COS(C)(=O)=O [MMS, methyl methanesulfonate] |  |  |  | 1829 and 1794 and 1812 | 777 | 1352 and 1390 and 1331 and 1357 ± 30 | 314 | 1776 and 1541 and 1673 and 1663 ± 118 | 513
